Measured values from US20050287203A1, “Formulation comprising testosteron undecanoate and castor oil” (priority 2002, published 2005).

Experiment: concentration of TU attainable in castor oil solution
Assay type: physicochemical
Settings: liquid carrier castor oil
Protocol: The choice of castor oil as the liquid carrier, in conjunction with the choice of testosterone undecanoate as the androgen, makes for a solution which can comprise about 200-250 mg of TU per ml. This amounts to approximately […] of testosterone per ml. This is a novel achievement for any orally administerable solution of testosterone in any form. The invention, in one aspect, therefore includes a pharmaceutical formulation in the form of a capsule for oral administration comprising testosterone undecanoate as the active ingredient dissolved in a pharmaceutically acceptable liquid carrier in a concentration of 200-250 mg/ml.

SMILES: CCCCCCCCCCC(=O)O[C@H]1CC[C@H]2[C@@H]3CCC4=CC(=O)CC[C@]4(C)[C@H]3CC[C@]12C [testosterone undecanoate]
- amount of TU the solution in castor oil can comprise: 200-250 mg of TU per ml
